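Five concentrations, 48 hours, 96-well plates. GI50 marks 50% less growth. TGI marks complete inhibition of growth.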
Experiments:
Test in all cases: DTP human tumour cell line panel, 48 h
786-0 renal = tested on: 786-0 renal
CAKI-1 renal = tested on: CAKI-1 renal
EKVX NSCLC = tested on: EKVX NSCLC
HCT-15 colon = tested on: HCT-15 colon
HOP-62 NSCLC = tested on: HOP-62 NSCLC
HT29 colon = tested on: HT29 colon
NCI-H23 lung = tested on: NCI-H23 lung
SF-268 CNS = tested on: SF-268 CNS
SF-539 CNS = tested on: SF-539 CNS
SNB-75 CNS = tested on: SNB-75 CNS

| SMILES | TGI (786-0 renal) | TGI (CAKI-1 renal) | TGI (EKVX NSCLC) | TGI (HCT-15 colon) | TGI (HOP-62 NSCLC) | TGI (HT29 colon) | TGI (NCI-H23 lung) | TGI (SF-268 CNS) | TGI (SF-539 CNS) | TGI (SNB-75 CNS) | GI50 (786-0 renal) | GI50 (CAKI-1 renal) | GI50 (EKVX NSCLC) | GI50 (HCT-15 colon) | GI50 (HOP-62 NSCLC) | GI50 (HT29 colon) | GI50 (NCI-H23 lung) | GI50 (SF-268 CNS) | GI50 (SF-539 CNS) | GI50 (SNB-75 CNS) |
| --- | --- | --- | --- | --- | --- | --- | --- | --- | --- | --- | --- | --- | --- | --- | --- | --- | --- | --- | --- | --- |
| CCCCN(CC)CC(C(C)=O)c1c(O)c2ccccc2oc1=O (centres undefined) | > 100 µM | > 100 µM | > 100 µM | > 100 µM | > 100 µM | > 100 µM | > 100 µM | > 100 µM | > 100 µM | > 100 µM |  |  |  |  |  |  |  |  |  |  |
| CCNC(=O)c1noc(-c2cc(C(C)C)c(O)cc2O)c1-c1ccc(CN2CCOCC2)cc1 | 31.5 µM | > 100 µM | > 100 µM | 19.9 µM | 29.4 µM | 2.09 µM | 27.2 µM | 34.9 µM | 26.3 µM | 55.8 µM | 1.98 µM | 0.059 µM | 5.21 µM | 0.0388 µM | 0.0532 µM | 0.0343 µM | 0.0535 µM | 2.44 µM | 0.0662 µM | 4.51 µM |
| CCCCn1c(-c2ccc(C(=O)O/N=C(\N)c3ccc4c(c3)OCO4)cc2)nc(-c2ccccc2)c1-c1ccccc1 | 6.15 µM | 3.37 µM | 7.74 µM | > 100 µM | 4.03 µM | > 100 µM | > 100 µM | 4.37 µM | 10.2 µM | 3.88 µM | 2.5 µM | 1.35 µM | 2.07 µM | 2.63 µM | 1.82 µM | 3.33 µM | 2.23 µM | 1.97 µM | 3 µM | 1.53 µM |
| COC(=O)C1(O)CC(=O)CCC1c1ccc(OC)cc1 (centres undefined) | > 100 µM | > 100 µM | > 100 µM | > 100 µM | > 100 µM | > 100 µM | > 100 µM | > 100 µM | > 100 µM | > 100 µM |  |  |  |  |  |  |  |  |  |  |
| CC(C)(C)C(=O)[CH-]C(=O)C(C)(C)C.CC(C)(C)C(=O)[CH-]C(=O)C(C)(C)C.CN(C)c1ccc([O-])cc1.CN(C)c1ccc([O-])cc1.[Ti+4] | > 100 µM | > 100 µM | > 100 µM | > 100 µM | > 100 µM | > 100 µM | > 100 µM | > 100 µM | > 100 µM | > 100 µM | 68.2 µM | > 100 µM | > 100 µM | > 100 µM | > 100 µM | > 100 µM | > 100 µM | > 100 µM | 55.8 µM | 26.1 µM |
| CC(C)CCC1(CCN)C(=O)NC(=O)NC1=O | > 100 µM | > 100 µM | > 100 µM | > 100 µM | > 100 µM | > 100 µM | > 100 µM | > 100 µM | > 100 µM | > 100 µM |  |  |  |  |  |  |  |  |  |  |
| C/C(=N/NC(=O)C[N+](C)(C)C)C(CN(C)C)C(=O)Nc1ccccc1 (centres undefined) | > 100 µM | > 100 µM | > 100 µM | > 100 µM | > 100 µM | > 100 µM | > 100 µM | > 100 µM | > 100 µM | > 100 µM |  |  |  |  |  |  |  |  |  |  |
| N#CNC(N)=Nc1ccc(Cl)cc1 | > 100 µM | > 100 µM | > 100 µM | > 100 µM | > 100 µM | > 100 µM | > 100 µM | > 100 µM | > 100 µM | > 100 µM |  |  |  |  |  |  |  |  |  |  |
| c1c[nH]c(CN2CCOCC2)n1 | > 100 µM | > 100 µM | > 100 µM | > 100 µM | > 100 µM | > 100 µM | > 100 µM | > 100 µM | > 100 µM | > 100 µM |  |  |  |  |  |  |  |  |  |  |
| CN1/C(=C\C=C\C2=[N+](C)c3ccccc3C2(C)C)C(C)(C)c2ccccc21 | 5.44 µM | 5.04 µM | 7.3 µM | 7.85 µM | 7.37 µM | 1.49 µM | 0.529 µM | 13 µM | 5.91 µM | 1.88 µM | 0.251 µM | 0.55 µM | 0.0297 µM | 0.387 µM | 0.258 µM | 0.0444 µM | 0.0189 µM | 0.274 µM | 0.224 µM | 0.271 µM |
| COc1ccc2c(c1)/C(=C/c1cc(OC)c(OC)c(OC)c1)C(=O)N2 | > 94.3 µM |  | > 100 µM | > 100 µM | > 47.5 µM | 21.1 µM | > 63.2 µM | > 100 µM | 19.5 µM | 2.05 µM | 0.236 µM | 0.118 µM | 11.6 µM | 0.393 µM | 0.137 µM | 0.116 µM | 0.613 µM | 0.419 µM | 0.74 µM | 0.483 µM |
| O=C(N[C@@H](C[Se][Se]C[C@H](NC(=O)c1ccc(Br)cc1F)C(=O)O)C(=O)O)c1ccc(Br)cc1F | > 100 µM | > 100 µM | > 100 µM | > 100 µM | > 100 µM | > 100 µM | > 100 µM | > 100 µM | > 100 µM | > 100 µM | > 100 µM | > 100 µM | > 100 µM | > 100 µM | > 100 µM | > 100 µM | > 100 µM | > 100 µM | > 100 µM | > 100 µM |
| CNC(=O)c1nn(C)c2c1C(C)(C)Cc1cnc(Nc3ccc(N4CCN(C)CC4)cc3)nc1-2 | > 10 µM | 1.22 µM | > 10 µM | > 10 µM | 9.84 µM | > 10 µM | > 7.26 µM | > 10 µM | > 6.03 µM | 2.29 µM | 0.649 µM | 0.114 µM | 1.93 µM | 0.337 µM | 0.435 µM | 0.94 µM | 0.966 µM | 1.34 µM | 1.39 µM | 0.304 µM |
| C=C1C(O)CC[C@]2(C)C1C1OC(C)(C)O[C@]13CC(=O)C(C)=C([C@H]1OC(C)(C)OC12)C3(C)C (some centres undefined) | > 100 µM | > 100 µM | > 100 µM | > 100 µM | > 100 µM | > 100 µM | > 100 µM | > 100 µM | > 100 µM | > 100 µM |  |  |  |  |  |  |  |  |  |  |
| O=C1OCC2=C1C(c1ccccc1)c1cc3c(cc1N2CCO)OCO3 (centres undefined) | > 50 µM | > 50 µM | > 50 µM | > 50 µM | > 50 µM | > 50 µM | > 50 µM | > 50 µM | > 50 µM | > 50 µM | 3.54 µM | 3.87 µM | 14 µM | 2.96 µM | 4.08 µM | 1.72 µM | 7.88 µM | 3.82 µM | 2.41 µM | 2.06 µM |
